One molecule from patent publication US20050272035A1, “Functional screening method” (priority 2002, published 2005) can be followed below.

Experiment [1] concerns ATF1 (activating transcription factor 1). In words: Nuclear trafficking (N/C ratio) of ATF1-EGFP indicator in transiently transfected HeLa cells. It is filed as cell-based. Particulars: 1 μM, 5 minutes, scatterplot FIG. 9.
Method: Expression vectors encoding cDNA-EGFP indicators were transiently transfected into HeLa cells growing in wells of 96 well microtitre plates by chemically mediated transfection (Fugene, Roche) and cells incubated under standard growth conditions for 24 hours to permit synthesis of indicator fusion proteins. Cells were subsequently stained with DRAQ 5, a cell permeable nuclear DNA binding dye (Biostatus), to fluorescently mark cell nuclei, and all wells imaged with dual laser excitation (EGFP 488 nm, DRAQ 5 633 nm) using an IN Cell Analyzer (Amersham Biosciences). Data for green (EGFP) and red (DRAQ 5) fluorescence were collected for all cells (FIG. 6) and used to determine thresholds for data separation of transfected cells (EGFP fluorescence above threshold) from non-transfected cells (EGFP fluorescence below threshold).
Indicator proteins derived from a range of cDNAs as described for Example 1 were transfected into HeLa cells and allowed to express for 24 hours. Following expression, cells were transferred into serum-free media for 2 hours to allow effects of stimuli from serum factors such as cortisol to decay. […] This algorithm allows the spatial distribution of cDNA-EGFP fusion proteins to be quantitated in expressing cells: a low N/C ratio indicating a cytoplasmic location for the indicator protein, a high N/C ration indicating a nuclear location. […]
Experiment [2] deals with Cyt-C (EGFP-Cytochrome C). In words: Granularity and Membrane Spot image analysis of EGFP-Cytochrome C indicator in HeLa cells. In kind it is cell-based. Particulars: staurosporine treated HeLa cells, FIG. 10 inset. The text has this: A further group of indicator proteins were transfected into HeLa cells and cells imaged before and after exposure to staurosporine as described in Example 2. […] These algorithms return results which quantitate fluorescence in degrees of granularity (i.e. low value indicates uniform distribution, high value indicates punctate distribution) and in terms of membrane localisation.

Take `CN[C@@H]1C[C@H]2O[C@@](C)([C@@H]1OC)n1c3ccccc3c3c4c(c5c6ccccc6n2c5c31)C(=O)NC4` [staurosporine]: in experiment [1], the “response of ATF1 indicator N/C ratio to modulator” value is “specific and differential responses”. In experiment [2], the “ratio of outputs of Granularity and Membrane Spot algorithms for Cyt-C indicator” value is “highest differential return from the two algorithms”.
